# Source: patent US20260327211A1, “MODULATORS OF A POTASSIUM CHANNEL AND OF TRPV1 CHANNEL AND USES THEREOF” (Bsense Bio Therapeutics Ltd., priority 2023, published 2026)
# Key:
# rats [1] = experiment: Hot plate (53° C.); type: in vivo, rat; conditions: 10 mg/kg PO, 2 and 4 hours post-dose
# Method: Hot Plate: Animals were placed on hot plate analgesia meter (IITC Life Science Inc., CA, USA) set to 53±1° C., and the time until the first escape response was observed was recorded. A response was considered when the animals lifted or licked their leg or performed kicking behavior.
# humans = conditions: Rowbotham 2011; cited from earlier work
# rats [2] = experiment: Core body temperature; type: in vivo, rat; conditions: 10 mg/kg
# Method: Core Body Temperature: Following two days of habituation to the measurement method, the body temperature was measured on study day for baseline values and then again post-dosing in the time points indicated in the figure. Body temperature was measured using a probe gently inserted into the animal anus using a corn oil lubricant (C8267, Sigma-Aldrich, IL).
# CHO-K1 cells = experiment: In vitro micronucleus; type: cell-based; conditions: Plate 2 without S9, 3 hours
# Method: (§1) The micronucleus assay was performed according to the regulatory guidelines. In brief, CHO-K1 cells were plated at 10000 cells/well in 3 plates and incubated In CHO-K1 growth medium (containing F12K, 10% FBS and 1% PS) overnight.
# (§2) As a control for the S9 treatment, plate No. 1, cells were treated with cyclophosphamide as a positive control, for 3 hours. For plate No. 2, without S9 treatment, cells were treated with mitomycin C as a positive control, compounds for 3 hours, and for plate No. 3, without S9 treatment, cells were treated with bleomycin sulfate as a positive control continuously for 24 hours.
# (§3) On the following day, 6 μg/mL of cytochalasin B were added to each well and plates were further incubated overnight. In the day after medium was replaced with a combined 10 μg/mL Hoechst dye solution and 0.5 μM calcein-AM in 100 μL warm DPBS for 30 minutes and the plates were scanned using CQ1 high-content analysis system.
# In vitro micronucleus = type: cell-based; conditions: hamster, cho-k1 cells; Plate 2 without S9, 3 hours; read-out: Cytotoxicity (%) Absolute EC50
# Method: as §1, §2, §3
# [3] = system: KCNQ2-5-type potassium channels; conditions: cited from earlier work
# hKv7.3/5 = biological target: T1, hKv7.3/5 (Homo sapiens, UniProt O43525+Q9NR82); conditions: positive control; read-out: Known IC50, Kv7.3/5; cited from earlier work
# T1 construct: expressed in transfected cells; host or cells: CHO
# [4] = system: sodium and calcium channel; conditions: cited from earlier work
# hKv7.2/3 = biological target: T2, hKv7.2/3 (Homo sapiens, UniProt O43525+O43526); experiment: Kv7.2/7.3 HCS, FLIPR potassium (thallium) assay, CHO/hKv7.2/3; type: cell-based; conditions: read-out: Kv7.2/3 maximal opening vs. control
# T2 construct: host or cells: CHO
# Method: Cell culture: Chinese hamster ovary (CHO) cell-line cells with a constitutive expression of human Kv7.2/3 channels (B'SYS GmbH, Switzerland) were cultured in F-12 nutrient mixture (Biological Industries) supplemented with 10% fetal bovine serum (Biological Industries) and 1% penicillin-streptomycin (Biological Industries) in a humidified 5% CO2 incubator at 37° C. To maintain the stability of human Kv7.2/7.3 expression antibiotic selection was added (Puromycin 5 μg/ml).
# High content screen (HCS) using FLIPR Potassium Assay Kit: A FLIPR Potassium Assay Kit (R8222 FLIPR Potassium Assay Explorer Kits, Molecular Devices) was used with the CHO/hKv7.2/3 cell line to screen molecules against the hKv7.2/7.3 ion channel target. The assay exploits the permeability of thallium ions (Tl+) through potassium (K+) channels. In this assay, Tl+ indicator dye is used to produce a bright fluorescent signal upon the binding to Tl+ conducted through the potassium channels. The intensity of the Tl+ signal is proportional to the number of potassium channels in the open state. Therefore, it provides a functional indication of the potassium channel activity. To activate the voltage-gate potassium channels, the cells were stimulated with a mixture of K+ and Tl+ to depolarize the cell membrane. The fluorescence increase in the assay represents the influx of Tl+ into the cell specifically through the potassium channel, providing a functional read-out of hKv7.2/3 activity using a fluorescent plate reader coupled with injectors used to activate the channels.
# According to optimization process to achieve uniform and consistent screening conditions the following protocol was established: Cells were seeded in 384-well, black-walled, clear-bottomed Greiner #781091, at a density of 5000 cells per well 24 hours before the assay conductance and incubated overnight in their normal growth medium. On the experiment day the medium was replaced with HBSS, HEPES, and the test compound/vehicle (0.2% DMSO). Dye solution (prepared according to the manufacturer) was added to the plates, which were incubated for 1.5 h light-protected in room temperature. Tecan Spark reader plate injectors were primed with Tl+(1 mM Tl2SO4) or Tl++K+(1 mM Tl2SO4; 5 mM K2SO4) for channel activation and data correction. […] To calculate EC50 values, the data was fitted to sigmoidal regression using Prism GraphPad. The fitting was constrained to a minimum of 1 and a maximal response of about 3.6 unless a different maximal response could be clearly identified.
# hKv7.4 = biological target: T3, hKv7.4 (Homo sapiens, UniProt P56696); conditions: positive control; read-out: Known IC50, Kv7.4; cited from earlier work
# T3 construct: expressed in transfected cells; host or cells: CHO
# HepG2 cells = conditions: positive control; read-out: Toxicity IC50; cited from earlier work
# MIA-OA rats = experiment: Dynamic weight bearing in MIA-OA rats; type: in vivo, rat; conditions: 100 mg/kg (naproxen 30 mg/kg), 6 hours post-dose
# Method: Monosodium iodoacetate-induced osteoarthritis (MIA-OA): The animals were anaesthetized using an Isoflurane+O2 mixture. Then 50 μl of MIA at a concentration of 60 mg/mL was injected into the right knee joint using a 30 G needle. On study days 13 and 14 following MIA injection, the animals' dynamic weight bearing and response to von Frey filaments were measured.
# Dynamic Weight Bearing (DWB): DWB study was performed using the DWB2 apparatus (Bioseb, Paris, France). The rats were placed in a transparent cage containing a matrix comprising around 2000 high-precision force sensors embedded in its floor where they were allowed to move freely. The force sensors measured the weight distribution on each of the four paws of the animal in grams. The animal was filmed from above using a high-definition camera, and the video feed was analyzed in real-time during the test using tracking software, allowing a precise analysis of the animal's posture and hind paws identification. Out of 5 minutes of animal behavior recording, a segment of 2 minutes was analyzed. Once the analysis was completed, the software provided the weight distribution of each hind paw as the main readout and the ratio between the injured and intact hind paws was then calculated.
# T3 sequence (P56696 whole entry): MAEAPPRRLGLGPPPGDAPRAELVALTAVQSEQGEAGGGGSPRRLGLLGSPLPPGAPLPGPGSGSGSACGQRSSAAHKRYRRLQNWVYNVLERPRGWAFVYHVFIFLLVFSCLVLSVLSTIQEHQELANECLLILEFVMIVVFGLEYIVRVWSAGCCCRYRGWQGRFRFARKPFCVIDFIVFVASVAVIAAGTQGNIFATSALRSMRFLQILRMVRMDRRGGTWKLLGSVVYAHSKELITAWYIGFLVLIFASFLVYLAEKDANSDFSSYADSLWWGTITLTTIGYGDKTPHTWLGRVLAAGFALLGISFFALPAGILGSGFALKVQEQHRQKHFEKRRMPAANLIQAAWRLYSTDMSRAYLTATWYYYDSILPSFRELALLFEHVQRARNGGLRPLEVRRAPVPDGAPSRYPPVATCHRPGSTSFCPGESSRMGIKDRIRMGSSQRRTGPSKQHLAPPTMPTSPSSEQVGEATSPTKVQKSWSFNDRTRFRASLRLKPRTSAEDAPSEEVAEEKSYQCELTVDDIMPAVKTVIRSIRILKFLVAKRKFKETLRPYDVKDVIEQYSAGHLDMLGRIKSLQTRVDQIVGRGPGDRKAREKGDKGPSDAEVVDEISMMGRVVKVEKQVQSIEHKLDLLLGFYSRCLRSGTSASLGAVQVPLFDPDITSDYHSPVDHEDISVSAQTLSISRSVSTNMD
# T1 sequence (O43525 whole entry): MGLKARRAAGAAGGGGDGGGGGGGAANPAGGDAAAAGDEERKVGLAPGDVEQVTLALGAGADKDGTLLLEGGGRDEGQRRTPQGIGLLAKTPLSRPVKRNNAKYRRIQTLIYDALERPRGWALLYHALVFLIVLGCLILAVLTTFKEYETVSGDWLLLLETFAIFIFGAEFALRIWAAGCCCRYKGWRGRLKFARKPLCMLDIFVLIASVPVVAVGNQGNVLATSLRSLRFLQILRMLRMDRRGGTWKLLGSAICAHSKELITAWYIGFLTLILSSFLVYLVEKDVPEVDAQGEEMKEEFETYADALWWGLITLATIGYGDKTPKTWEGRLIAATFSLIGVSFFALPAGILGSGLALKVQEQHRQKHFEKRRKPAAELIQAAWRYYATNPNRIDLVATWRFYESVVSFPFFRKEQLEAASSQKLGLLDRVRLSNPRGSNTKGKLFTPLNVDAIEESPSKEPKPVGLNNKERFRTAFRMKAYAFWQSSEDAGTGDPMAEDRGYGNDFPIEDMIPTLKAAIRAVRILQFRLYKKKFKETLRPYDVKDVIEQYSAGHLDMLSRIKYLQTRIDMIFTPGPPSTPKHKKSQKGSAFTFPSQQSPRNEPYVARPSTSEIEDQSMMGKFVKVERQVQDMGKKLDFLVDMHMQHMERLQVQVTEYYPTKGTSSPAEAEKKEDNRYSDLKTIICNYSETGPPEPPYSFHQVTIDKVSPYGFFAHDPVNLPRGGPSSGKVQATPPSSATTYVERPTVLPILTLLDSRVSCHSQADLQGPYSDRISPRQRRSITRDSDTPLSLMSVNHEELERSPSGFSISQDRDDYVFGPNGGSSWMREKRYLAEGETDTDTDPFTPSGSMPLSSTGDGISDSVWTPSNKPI
# T1 sequence (Q9NR82 whole entry): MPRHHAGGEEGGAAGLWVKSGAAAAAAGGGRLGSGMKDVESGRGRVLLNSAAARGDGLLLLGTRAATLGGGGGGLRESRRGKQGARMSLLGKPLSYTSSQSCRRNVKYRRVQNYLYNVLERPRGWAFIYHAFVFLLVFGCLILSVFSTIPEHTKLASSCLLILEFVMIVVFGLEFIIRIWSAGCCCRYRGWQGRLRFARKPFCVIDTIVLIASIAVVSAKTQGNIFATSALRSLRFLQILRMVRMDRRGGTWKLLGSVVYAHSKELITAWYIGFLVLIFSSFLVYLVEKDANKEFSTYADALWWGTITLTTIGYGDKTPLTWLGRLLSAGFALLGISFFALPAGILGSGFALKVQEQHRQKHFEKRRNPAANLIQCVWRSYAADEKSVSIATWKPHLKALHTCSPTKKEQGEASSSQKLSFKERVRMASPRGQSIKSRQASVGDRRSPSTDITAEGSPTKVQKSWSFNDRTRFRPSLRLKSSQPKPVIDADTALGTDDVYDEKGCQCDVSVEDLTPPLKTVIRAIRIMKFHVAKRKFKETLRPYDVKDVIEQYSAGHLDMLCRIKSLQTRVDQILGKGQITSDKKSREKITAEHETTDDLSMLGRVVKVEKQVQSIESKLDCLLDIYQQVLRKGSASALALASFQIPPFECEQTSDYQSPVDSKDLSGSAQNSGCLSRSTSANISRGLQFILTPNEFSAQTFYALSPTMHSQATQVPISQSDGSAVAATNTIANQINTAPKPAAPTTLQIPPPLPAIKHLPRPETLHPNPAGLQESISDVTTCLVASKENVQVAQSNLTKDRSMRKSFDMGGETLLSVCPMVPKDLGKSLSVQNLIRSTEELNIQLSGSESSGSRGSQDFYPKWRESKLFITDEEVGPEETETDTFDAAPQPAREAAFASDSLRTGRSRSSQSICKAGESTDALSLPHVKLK
# T2 sequence (O43525 whole entry): as the sequence (O43525 whole entry) above
# T2 sequence (O43526 whole entry): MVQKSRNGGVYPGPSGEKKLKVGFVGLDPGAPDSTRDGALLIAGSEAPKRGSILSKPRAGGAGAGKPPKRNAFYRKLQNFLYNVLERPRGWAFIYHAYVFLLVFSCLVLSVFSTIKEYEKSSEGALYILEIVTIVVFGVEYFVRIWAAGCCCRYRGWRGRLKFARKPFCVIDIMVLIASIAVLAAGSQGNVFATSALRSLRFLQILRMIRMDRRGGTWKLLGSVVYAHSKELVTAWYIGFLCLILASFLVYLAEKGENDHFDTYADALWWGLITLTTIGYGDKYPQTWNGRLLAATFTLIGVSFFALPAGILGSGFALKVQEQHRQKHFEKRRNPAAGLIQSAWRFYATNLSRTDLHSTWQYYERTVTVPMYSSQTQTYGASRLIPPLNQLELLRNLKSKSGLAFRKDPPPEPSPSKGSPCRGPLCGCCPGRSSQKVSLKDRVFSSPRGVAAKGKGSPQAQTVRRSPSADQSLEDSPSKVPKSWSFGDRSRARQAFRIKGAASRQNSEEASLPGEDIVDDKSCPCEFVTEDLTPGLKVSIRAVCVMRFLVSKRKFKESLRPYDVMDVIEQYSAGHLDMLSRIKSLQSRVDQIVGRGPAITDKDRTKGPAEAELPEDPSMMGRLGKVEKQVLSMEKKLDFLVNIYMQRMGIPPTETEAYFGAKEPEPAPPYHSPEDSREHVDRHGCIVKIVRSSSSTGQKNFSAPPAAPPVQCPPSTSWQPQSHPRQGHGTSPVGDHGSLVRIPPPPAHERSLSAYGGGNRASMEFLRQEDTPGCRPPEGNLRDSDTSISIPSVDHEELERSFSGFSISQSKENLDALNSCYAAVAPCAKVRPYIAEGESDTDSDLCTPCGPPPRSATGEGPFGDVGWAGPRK
structure (smiles),measurement,setting,value
"CC(C)(C)c1ccc2c(c1)CC[C@H]2NC(=O)Nc1cccc2[nH]ncc12 [ABT102, reference compound]",Hot plate escape latency,rats [1],statistically significant increase in hot plate escape latency
same,"Heat pain threshold, clinical",humans,increase heat pain threshold
same,Increase of core body temperature vs vehicle,rats [2]; 6 hours post-dose,1.3 °C
same,Increase of core body temperature vs vehicle,rats [2]; 10 hours post-dose,0.8 °C
"CO[C@@]12[C@H](COC(N)=O)C3=C(C(=O)C(C)=C(N)C3=O)N1C[C@@H]1N[C@@H]12 [Mitomycin C, reference compound]",Micronucleus response Absolute MEC,CHO-K1 cells,>16 µM
same,CC50 at 3 h,In vitro micronucleus,> 16 µM
"CCOC(=O)Nc1ccc(NCc2ccc(F)cc2)cc1N [Retigabine, N-(2-amino-4-(4-fluorobenzylamino)-phenyl)carbamic acid ethyl ester]",Channel selectivity,[3],highly selective for KCNQ2-5-type potassium channels
same,IC50,hKv7.3/5,1.5 to 5 µM
same,Other effects,[4],sodium and calcium channel blocking activity
same,Emax,hKv7.2/3,220%
same,IC50,hKv7.4,1.5 to 5 µM
NS(=O)(=O)OC[C@H]1C[C@@H](Nc2ccnc3cc(-c4cccc(SC(F)(F)F)c4)nn23)[C@H](O)[C@@H]1O [TAK243],IC50,HepG2 cells,~0.2 µM
"COc1ccc2cc([C@H](C)C(=O)O)ccc2c1 [naproxen, reference compound]",Reversal of weight bearing changes,MIA-OA rats,comparable reversal of weight bearing changes
